Values joined by “and” are separate entries in the source; they are usually repeats but may differ in a detail not shown here. Identical values can stand only once. Toxic doses and inconclusive results are not listed.
System: P388 leukemia ip, CD2F1 mice, survival T/C
Experiment: NCI In Vivo Anticancer Drug Screen. Data for tumor model P388 Leukemia (intraperitoneal) in CD2F1 (CDF1) mice
Conditions: endpoint: median survival time, higher = longer survival
Method in brief: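 Mice carrying the transplanted tumor received test compound or vehicle. Survival was recorded in each group, and the value is the treated-group measurement divided by that of the vehicle-treated control group.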

[1] = dose: 50.0 mg/kg/injection, schedule: Q01DX009 (ip), vehicle: saline
[2] = dose: 100.0 mg/kg/injection, schedule: Q01DX009 (ip), vehicle: saline
[3] = dose: 200.0 mg/kg/injection, schedule: Q01DX009 (ip), vehicle: saline
[4] = dose: 60.0 mg/kg/injection, schedule: Q01DX005 (ip), vehicle: Klucel (hydroxypropylcellulose) (HPC)
[5] = dose: 120.0 mg/kg/injection, schedule: Q01DX005 (ip), vehicle: Klucel (hydroxypropylcellulose) (HPC)
[6] = dose: 240.0 mg/kg/injection, schedule: Q01DX005 (ip), vehicle: Klucel (hydroxypropylcellulose) (HPC)
[7] = dose: 200.0 mg/kg/injection, schedule: Q01DX005 (ip), vehicle: saline with Tween-80
[8] = dose: 50.0 mg/kg/injection, schedule: Q01DX005 (ip), vehicle: saline with Tween-80
[9] = dose: 100.0 mg/kg/injection, schedule: Q01DX005 (ip), vehicle: saline with Tween-80
[10] = dose: 100.0 mg/kg/injection, schedule: Q01DX009 (ip), vehicle: saline with Tween-80
[11] = dose: 100.0 mg/kg/injection, schedule: Q04DX003 (ip), vehicle: saline with Tween-80
[12] = dose: 200.0 mg/kg/injection, schedule: Q01DX009 (ip), vehicle: saline with Tween-80
[13] = dose: 200.0 mg/kg/injection, schedule: Q04DX003 (ip), vehicle: saline with Tween-80
[14] = dose: 400.0 mg/kg/injection, schedule: Q01DX009 (ip), vehicle: saline with Tween-80
[15] = dose: 400.0 mg/kg/injection, schedule: Q04DX003 (ip), vehicle: saline with Tween-80
[16] = dose: 100.0 mg/kg/injection, schedule: Q01DX001 (ip), vehicle: Klucel (hydroxypropylcellulose) (HPC)
[17] = dose: 200.0 mg/kg/injection, schedule: Q01DX001 (ip), vehicle: Klucel (hydroxypropylcellulose) (HPC)
[18] = dose: 12.5 mg/kg/injection, schedule: Q01DX009 (ip), vehicle: saline with Tween-80
[19] = dose: 25.0 mg/kg/injection, schedule: Q01DX009 (ip), vehicle: saline with Tween-80
[20] = dose: 50.0 mg/kg/injection, schedule: Q01DX009 (ip), vehicle: saline with Tween-80
[21] = dose: 6.25 mg/kg/injection, schedule: Q01DX009 (ip), vehicle: saline
[22] = dose: 12.5 mg/kg/injection, schedule: Q01DX009 (ip), vehicle: saline
[23] = dose: 25.0 mg/kg/injection, schedule: Q01DX009 (ip), vehicle: saline
[24] = dose: 6.25 mg/kg/injection, schedule: Q01DX009 (ip), vehicle: water
[25] = dose: 12.5 mg/kg/injection, schedule: Q01DX009 (ip), vehicle: water

In the case of `O=c1[nH]c(=S)cnn1C1OC(CO)C(O)C1O` (stereo not given), the T/C [1] is reported as 106 % of control, the T/C [2] is reported as 94 % of control and the T/C [3] is reported as 101 % of control.

In the case of `CC(=O)N(c1nc2ccccc2s1)N1C(=O)c2ccccc2C1=O`, the T/C [4] is reported as 98 % of control, the T/C [5] is reported as 94 % of control and the T/C [6] is reported as 90 % of control.

For `NC(N)=NS(=O)(=O)c1ccc(N=Nc2c(O)n(-c3ccccc3)c(=S)n(-c3ccccc3)c2=O)cc1`, the T/C [4] was 105 % of control, the T/C [5] was 99 % of control and the T/C [6] was 99 % of control.

For `Cc1ccc(-n2c(=O)[nH]c3ccccc3c2=O)cc1[N+](=O)[O-]`, the T/C (dose: 6.25 mg/kg/injection, schedule: Q01DX005 (ip), vehicle: saline with Tween-80) was 101 % of control, the T/C (dose: 12.5 mg/kg/injection, schedule: Q01DX005 (ip), vehicle: saline with Tween-80) was 97 % of control and the T/C [7] was 90 % of control.

`NS(=O)(=O)c1ccc(N=Cc2c3ccccc3nc3cc(Cl)ccc23)cc1` was tested, and the T/C [8] was 91 % of control, the T/C [9] was 88 % of control and the T/C [7] was 88 % of control.

`c1ccc2nc(-c3cc4ccccc4s3)ccc2c1` was tested, and the T/C [10] was 100 % of control and 104 % of control, the T/C [11] was 90 % of control and the T/C [12] was 100 % of control and 90 % of control. The T/C [13] was 90 % of control, the T/C [14] was 109 % of control and 95 % of control and the T/C [15] was 90 % of control.

`Cn1c(N)c(C(=O)/C=C/c2ccccc2)c(=O)n(CCN2CCOCC2)c1=O` was tested, and the T/C (dose: 50.0 mg/kg/injection, schedule: Q01DX005 (ip), vehicle: saline) was 100 % of control, the T/C (dose: 100.0 mg/kg/injection, schedule: Q01DX005 (ip), vehicle: saline) was 94 % of control and the T/C (dose: 200.0 mg/kg/injection, schedule: Q01DX005 (ip), vehicle: saline) was 89 % of control.

`CC1=C(C)CN2CC(C#N)=C(N)C2C1` (stereo not given) was tested, and the T/C [8] was 107 % of control, the T/C [9] was 96 % of control and the T/C [7] was 96 % of control.

For `CC(=O)c1ccc(N=C(C#N)C2=C(O)c3ccccc3C2=O)cc1`, the T/C (dose: 60.0 mg/kg/injection, schedule: Q01DX005 (ip), vehicle: saline with Tween-80) was 115 % of control and the T/C (dose: 120.0 mg/kg/injection, schedule: Q01DX005 (ip), vehicle: saline with Tween-80) was 120 % of control.

For `CN(C)c1ccc(C(=O)C2(Cl)CCCCC2)cc1`, the T/C [16] was 97 % of control, the T/C [17] was 100 % of control and the T/C (dose: 400.0 mg/kg/injection, schedule: Q01DX001 (ip), vehicle: Klucel (hydroxypropylcellulose) (HPC)) was 96 % of control.

In the case of `Cc1ccccc1N=Nc1c(O)n(-c2ccc(Cl)cc2)c(=S)n(-c2ccc(Br)cc2)c1=O`, the T/C (dose: 100.0 mg/kg/injection, schedule: Q04DX002 (ip), vehicle: saline with Tween-80) is reported as 96 % of control, the T/C (dose: 200.0 mg/kg/injection, schedule: Q04DX002 (ip), vehicle: saline with Tween-80) is reported as 105 % of control and the T/C (dose: 400.0 mg/kg/injection, schedule: Q04DX002 (ip), vehicle: saline with Tween-80) is reported as 91 % of control.

For `COC(=O)C1(C(=O)OC)C2C=CC(Cl)C21` (stereo not given), the T/C (dose: 50.0 mg/kg/injection, schedule: Q01DX009 (ip), vehicle: Klucel (hydroxypropylcellulose) (HPC)) was 96 % of control, the T/C (dose: 100.0 mg/kg/injection, schedule: Q01DX009 (ip), vehicle: Klucel (hydroxypropylcellulose) (HPC)) was 104 % of control and the T/C (dose: 200.0 mg/kg/injection, schedule: Q01DX009 (ip), vehicle: Klucel (hydroxypropylcellulose) (HPC)) was 93 % of control.

`Nc1ncc[n+]2c(COCCCl)[nH]nc12` was tested, and the T/C [16] was 92 % of control and the T/C [17] was 92 % of control.

In the case of `CCOC(=O)c1ccc(NC(=O)Nc2cnccn2)cc1`, the T/C [18] is reported as 92 % of control, the T/C [19] is reported as 93 % of control and the T/C [20] is reported as 86 % of control and 91 % of control. The T/C [10] was 95 % of control and the T/C [12] was 90 % of control.

In the case of `O=c1[nH]c2ccccc2c2cc3ccccc3cc12`, the T/C [21] is reported as 94 % of control, the T/C [22] is reported as 86 % of control and the T/C [23] is reported as 99 % of control. The T/C [1] was 96 % of control, the T/C [10] was 89 % of control and the T/C [12] was 89 % of control. For the same compound, the T/C [14] was 89 % of control.

`CCCCCCC(=O)/C=C/c1ccccc1OC(=O)c1ccc([N+](=O)[O-])cc1` was tested, and the T/C [20] was 98 % of control, the T/C [10] was 99 % of control and the T/C [12] was 96 % of control.

`O=S(Nc1ccccc1)Nc1ccccc1` was tested, and the T/C [19] was 100 % of control, the T/C [20] was 100 % of control and the T/C [10] was 90 % of control.

`O=C1C(N2CC2)=C(N2CC2)C(=O)c2ncncc21` was tested, and the T/C (dose: 2.5 mg/kg/injection, schedule: Q01DX005 (ip), vehicle: saline) was 105 % of control, the T/C (dose: 5.0 mg/kg/injection, schedule: Q01DX005 (ip), vehicle: saline) was 104 % of control and 113 % of control and the T/C (dose: 10.0 mg/kg/injection, schedule: Q01DX005 (ip), vehicle: saline) was 107 % of control.

In the case of `CN(C)c1nc(-c2ccccc2)cc(=O)[nH]1`, the T/C (dose: 15.0 mg/kg/injection, schedule: Q01DX009 (ip), vehicle: saline with Tween-80) is reported as 102 % of control, the T/C (dose: 30.0 mg/kg/injection, schedule: Q01DX009 (ip), vehicle: saline with Tween-80) is reported as 108 % of control and the T/C (dose: 50.0 mg/kg/injection, schedule: Q04DX003 (ip), vehicle: Klucel (hydroxypropylcellulose) (HPC)) is reported as 98 % of control. For the same compound, the T/C (dose: 60.0 mg/kg/injection, schedule: Q01DX009 (ip), vehicle: saline with Tween-80) was 100 % of control, the T/C (dose: 100.0 mg/kg/injection, schedule: Q04DX003 (ip), vehicle: Klucel (hydroxypropylcellulose) (HPC)) was 94 % of control and the T/C (dose: 200.0 mg/kg/injection, schedule: Q04DX003 (ip), vehicle: Klucel (hydroxypropylcellulose) (HPC)) was 94 % of control. The T/C (dose: 400.0 mg/kg/injection, schedule: Q04DX003 (ip), vehicle: Klucel (hydroxypropylcellulose) (HPC)) was 92 % of control.

In the case of `Nc1n[n+](C2CCCCC2)no1`, the T/C (dose: 3.13 mg/kg/injection, schedule: Q01DX009 (ip), vehicle: water) is reported as 111 % of control, the T/C [24] is reported as 98 % of control and the T/C [25] is reported as 101 % of control.

`CCN(CC)CCOc1ccc(C(O)(Cc2ccc(OC)cc2)c2ccccc2)cc1` (stereo not given) was tested, and the T/C [8] was 101 % of control, the T/C [9] was 92 % of control and the T/C [7] was 92 % of control.

With `CC(/C=N\Nc1ccc(C(=O)O)cc1)=N/NC(=O)CC#N` the T/C [1] was 88 % of control, the T/C [2] was 86 % of control and the T/C [3] was 88 % of control.

For `O=NNc1c2c(nc3ccccc13)CCCC2`, the T/C (dose: 3.12 mg/kg/injection, schedule: Q01DX009 (ip), vehicle: water) was 94 % of control, the T/C [24] was 94 % of control and the T/C [25] was 103 % of control. The T/C (dose: 25.0 mg/kg/injection, schedule: Q01DX009 (ip), vehicle: water) was 100 % of control and 111 % of control and 112 % of control, the T/C (dose: 50.0 mg/kg/injection, schedule: Q01DX009 (ip), vehicle: water) was 100 % of control and 110 % of control and 123 % of control and the T/C (dose: 100.0 mg/kg/injection, schedule: Q01DX009 (ip), vehicle: water) was 100 % of control and 106 % of control. The T/C (dose: 200.0 mg/kg/injection, schedule: Q01DX009 (ip), vehicle: water) was 89 % of control.

In the case of `CC1(C)N=C(N)N=C(N)N1c1ccc(CCC(=O)Nc2ccc(S(=O)(=O)F)cc2)c(Cl)c1`, the T/C [21] is reported as 157 % of control, the T/C [18] is reported as 187 % of control and the T/C [22] is reported as 200 % of control. For the same compound, the T/C [19] was 170 % of control, the T/C [23] was 209 % of control and the T/C [20] was 91 % of control. The T/C [1] was 190 % of control, the T/C [11] was 170 % of control and the T/C (dose: 132.0 mg/kg/injection, schedule: Q04DX003 (ip), vehicle: saline with Tween-80) was 100 % of control. The T/C [13] was 162 % of control and 190 % of control and the T/C [15] was 95 % of control.

Reference: PubChem BioAssay AID330 (DTP/NCI, 2004)
